Literature values as cited in patent US12637441B2, “Prodrugs of the tyrosine kinase inhibitor for treating cancer” (RISEN (SUZHOU) PHARMA TECH CO., LTD., priority 2019, dated 2026).

In the case of `CNC(=O)c1ccccc1Sc1ccc2c(/C=C/c3ccccn3)n[nH]c2c1` [axitinib, N-methyl-2-((3-((1E)-2-(2-pyridinyl)ethenyl)-1H-indazol-6-yl)thio)benzamide], the “patients in whom the most common side effects occur” value is given as “more than 20%”.
